Assay results taken from PubChem BioAssay AID449762 (Southern Research Specialized Biocontainment Screening …, 2010).
Records with an inconclusive call do not appear.

Tested on: M. tuberculosis H37Rv growth inhibition, 7H9 media
Test: M. tuberculosis growth inhibition, HTS (AID 449762);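 note: bacterial growth assessed after seven days of incubation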
Conditions: for IC90: measured here: IC90 growth inhibition

CCn1c(SCC(=O)OC2CCCCC2)nc2ccccc2c1=O
IC50: 21.7 µM
IC90: 37.7 µM

C=CCC1(CC=C)CCCN1C(=O)c1cc(COc2ccc(-n3cncn3)cc2)on1
IC50: 41.8 µM
IC90: > 100 µM

O=C(CSc1n[nH]c(-c2ccccc2)n1)Nc1ccc(Br)cn1
IC90: > 100 µM

CCOc1cc(CNCCCN2CCOCC2)cc(Br)c1OCC(=O)Nc1cccc(C(F)(F)F)c1
IC50: 22.1 µM
IC90: 31.7 µM

Cc1ccc2[nH]c(C(=O)NN=C3CCCCC3)c(-c3ccccc3)c2c1
IC50: 29 µM
IC90: 56.6 µM

CC(=O)Nc1ccc(S(=O)(=O)Nc2ccc(N3CCCCC3)cc2)cc1
IC50: 12.4 µM
IC90: 13.8 µM

CCCc1ccc2oc(C(=O)N(C)Cc3nccs3)c(C)c2c1
IC50: 32.1 µM
IC90: 60.3 µM

Cc1ccc(NCCC(=O)c2ccc(Br)cc2)cc1
IC50: 10.6 µM
IC90: 21.5 µM

Cc1ccccc1Nc1nc(N)nc(COC(=O)c2ccc([N+](=O)[O-])o2)n1
IC50: 0.49 µM
IC90: 2.46 µM

CCCCCCN=C1CC(C)(C)CC(=O)/C1=C(/O)CCC
IC50: 43 µM
IC90: > 100 µM

CC(C)CCC[C@@H](C)[C@H]1CC[C@H]2[C@@H]3C(=O)C=C4C[C@@H](O)CC[C@]4(C)[C@H]3CC[C@]12C
IC50: 43.3 µM
IC90: 47.8 µM

C=CCc1c(C)nc(SC)nc1Nc1ccc(C(C)=O)cc1
IC50: 23.3 µM
IC90: 32.6 µM

c1ccc(-c2n[nH]c(-c3ccccn3)n2)cc1
IC50: 12.6 µM
IC90: 19.3 µM

O=C(Nc1nc2ccc(F)cc2s1)C1CCN(S(=O)(=O)c2cc([N+](=O)[O-])ccc2Cl)CC1
IC50: 10.9 µM
IC90: 16 µM

COc1ccc(NCc2nnc(SCC(=O)c3ccc(OC)cc3)o2)cc1
IC50: 7.11 µM
IC90: 13.4 µM

O=C(C[n+]1cc(-c2ccc(Cl)cc2)n2c1CCC2)Nc1nc(-c2ccccc2)cs1
IC50: 17 µM
IC90: 25.1 µM

COc1cc(C)ccc1OCCOc1c(C)cc(Cl)cc1Cl
IC50: 21.6 µM
IC90: > 100 µM

CNC(=S)/N=C/NOCc1c(Cl)cccc1Cl
IC50: 5.44 µM
IC90: 12.9 µM

CCOC(=O)C1=C(C)Nc2nc(SCC(=O)OC)nn2C1c1cc(F)cc(F)c1 (configuration not stated)
IC50: 5.06 µM
IC90: 7.95 µM

Cc1nnc(-c2ccccc2)c(=O)n1/N=C/c1c(O)ccc2ccccc12
IC50: 24.1 µM
IC90: 27.3 µM

CCCNc1nc(-c2cc(C(=O)Nc3ccccc3)on2)cc(C(C)C)n1
IC50: 35 µM
IC90: 59.3 µM

CCCCOc1ccc(Br)cc1/C(C)=N/NC1=NCCN1
IC50: 20.7 µM
IC90: 33.3 µM

Cc1cccc(/C=C/c2onc(C)c2[N+](=O)[O-])n1
IC50: 10.9 µM
IC90: 19.1 µM

COc1cc(/C=N/NC(=O)COc2ccc(C)cc2)ccc1OC(=O)c1cccs1
IC50: 18.1 µM
IC90: 30.2 µM

c1ccc(Cn2c3ccccc3c3nnc(SCCN4CCCCC4)nc32)cc1
IC50: 21.3 µM
IC90: 34.5 µM

O=C1c2ccccc2-c2onc3ccc(Oc4ccccc4)c1c23
IC50: 5.64 µM
IC90: 10.9 µM

NC(=S)N/N=C/c1ccc(-c2ccccc2)o1
IC50: 48.8 µM
IC90: 75 µM

CCN(CC)S(=O)(=O)c1ccc2oc(SCC(=O)Nc3cc(C)on3)nc2c1
IC50: 1.39 µM
IC90: 5.88 µM

Cc1cc(NC(=O)c2sccc2C)n(-c2nc3ccccc3[nH]2)n1
IC50: 2.94 µM
IC90: > 100 µM

COc1cc(/C=C/c2cc[n+](C)cc2)ccc1OCC(=O)Nc1ccc(Cl)c(Cl)c1
IC50: 21.7 µM
IC90: 23.5 µM

CCCc1cc2c(cc1NC(=O)c1ccccc1Cl)OCO2
IC50: 1.98 µM
IC90: > 100 µM

CCCCN(C)CCNC(=O)c1ccc(Cn2c(=S)[nH]c3ccc(Br)cc3c2=O)cc1
IC50: 12.2 µM
IC90: 20 µM

Cc1sc2nc(CN(C(=O)NC3CCCCC3)C3CCCC3)[nH]c(=O)c2c1C
IC50: 30.5 µM
IC90: > 100 µM

O=C(Nc1cccnc1Cl)c1cc(-c2ccco2)on1
IC50: 41.4 µM
IC90: > 100 µM

Nc1ccc2cc(Br)ccc2c1
IC50: 51.8 µM
IC90: 84.9 µM

CCCCn1cnc2cc(NCc3cccc(OC)c3O)ccc21
IC50: 80.2 µM
IC90: > 100 µM

O=C(OCc1csc(Nc2ccccc2)n1)c1ccc(Cl)cc1
IC50: 17.1 µM
IC90: 45.7 µM

Cc1c(C(=O)N(C)C)sc2nc(-c3ccccn3)[nH]c(=O)c12
IC50: 5.89 µM
IC90: 16.9 µM

CCOc1ccc(-c2cnc(NCc3cccc4ccccc34)n2CCOC)cc1
IC50: 5.56 µM
IC90: 8.14 µM

CCCCCC(=O)N/N=C(\C)c1ccccn1
IC50: 13.9 µM
IC90: 33.1 µM

O=C(c1ccc([N+](=O)[O-])s1)N1CCN(c2ccc(C(F)(F)F)cn2)CC1
IC50: < 0.2 µM
IC90: < 0.2 µM

C=C1c2c(Cl)ccc(O)c2C(O)=C2C(=O)[C@]3(O)C(O)=C(C(N)=O)C(=O)[C@@H](N(C)C)[C@@H]3[C@@H](O)C12 (some centres not stated)
IC50: 1.06 µM
IC90: 4.88 µM

COc1ccc(CN(CCC(c2ccccc2)c2ccc(OC(C)C)cc2)C(=O)CCl)cc1OC (configuration not stated)
IC50: 6.53 µM
IC90: 12.5 µM

CN1CCN(Cn2cc(/C=C/C(=O)c3ccccc3)c3ccccc32)CC1
IC50: 7.95 µM
IC90: 26.3 µM

Cc1ncsc1CCOC(=O)c1ccc([N+](=O)[O-])cc1
IC50: 8.11 µM
IC90: > 100 µM

Cc1ccnc(Sc2ccc([N+](=O)[O-])cc2[N+](=O)[O-])n1
IC50: 7.7 µM
IC90: 15.1 µM

C/C(CC(=O)Nc1ccc2c(c1)OCCO2)=N\NC(=O)c1ccccc1F
IC50: 6.94 µM
IC90: > 100 µM

COc1cccc2c1C(=O)c1c(O)c3c(c(O)c1C2=O)C[C@@](O)(C(=O)CO)C[C@@H]3O[C@H]1C[C@H](N)[C@@H](O)[C@H](C)O1
IC50: 2.64 µM
IC90: 4.86 µM

CNc1ccc2nc3ccccc3[n+](C)c2c1
IC50: 1.29 µM
IC90: 2.34 µM

CC(C)(O)[C@H]1O[C@H]2CC[C@@]3(C)[C@@](O)(CC[C@H]4Cc5c([nH]c6ccccc56)[C@@]43C)C2=CC1=O
IC50: 42.2 µM
IC90: 63.9 µM

CC1CCCC(C)N1C(=O)COC(=O)c1cc(-c2cccs2)nn1-c1ccccc1 (configuration not stated)
IC50: 24.5 µM
IC90: 55.6 µM

CC1(C)CC(NC(=O)c2ccc(Cl)c(S(=O)(=O)N(Cc3ccccc3)c3ccccc3)c2)CC(C)(C)N1
IC50: 24.5 µM
IC90: 27.9 µM

COC(=O)CC(=O)N1CCN(c2ccc(Cl)c(Cl)c2)CC1
IC50: 20 µM
IC90: 55 µM

CCOC(=O)c1[nH]c2ccc(F)cc2c1NC(=O)CN1CCN(C/C=C/c2ccccc2)CC1
IC50: 19.1 µM
IC90: 27.1 µM

CSCCC1NC(=O)N(CC(=O)N2N=C(c3ccc(Cl)cc3)CC2c2ccco2)C1=O (configuration not stated)
IC50: 10.5 µM
IC90: 16 µM

CC(C)(C)CC(C)(C)c1ccc(OCCOCC[N+](C)(C)Cc2ccccc2)cc1
IC50: 26.2 µM
IC90: 30 µM

CCOC(=O)c1cc2cc3ccccc3cc2oc1=O
IC50: 34 µM
IC90: > 100 µM

CCOc1ccc(-c2cc(C)[n+](CCc3ccc(OC)c(OC)c3)c(-c3ccc(OCC)cc3)c2)cc1
IC50: 0.92 µM
IC90: 1.8 µM

CC(C)c1ccc2[nH]c(O)c(N=NC(=O)c3ccc(CSc4nncn4C)cc3)c2c1
IC90: > 100 µM

O=C(NCc1ccc2c(c1)OCO2)c1c(O)nc2sccn2c1=O
IC50: 40 µM
IC90: > 100 µM

COc1ccc(-c2ccc(-c3noc(C(C)C)n3)c(OC)n2)cc1
IC50: 10.7 µM
IC90: 26.7 µM

Cc1ccc(C2CC(c3cccs3)=NN2C(=O)CCl)cc1 (configuration not stated)
IC50: 0.39 µM
IC90: 1.39 µM

O=C(N/N=C(\c1ccccc1)c1ccccn1)c1ccccc1Cl
IC50: 3.65 µM
IC90: 22.1 µM

S=C(Nc1ccc(Cl)cc1)Nc1cccc2cnccc12
IC50: 4.42 µM
IC90: 5.24 µM

Cc1ccc(C(=O)Sc2cccccc2=O)cc1
IC50: 0.96 µM
IC90: 2.48 µM

O=C(N/N=C/c1cccc2cccnc12)[C@H]1C[C@@H]1c1ccccc1
IC50: 18.6 µM
IC90: 34.7 µM

O=C(Nc1cc(C(F)(F)F)ccc1-n1cncn1)c1ccc([N+](=O)[O-])o1
IC50: 9.55 µM
IC90: 32.5 µM

O=C(c1cc2cc(F)ccc2[nH]1)N(Cc1cccnc1)CC1CCCN(C2CCCCC2)C1 (configuration not stated)
IC50: 25 µM
IC90: 33.6 µM

CCOc1ccc(NC(=O)CCc2nnc3ccc(N4CCC(C)CC4)nn23)cc1
IC50: 8.75 µM
IC90: 15.3 µM

O=C(O)c1ccccc1C(=O)NNc1ccc(Cl)cc1Cl
IC90: > 100 µM

CCOc1ccc2nc(NC(=O)C34CC5CC(CC(NC(C)=O)(C5)C3)C4)sc2c1
IC50: 17.8 µM
IC90: 28.4 µM

O=C(CCl)NCc1cc(-c2ccc(Cl)cc2)no1
IC50: < 0.2 µM
IC90: 1.33 µM

CCc1ccc2c(c1)C1(C(=O)N2)N2CCCC2C(C(=O)c2ccc3ccccc3c2)C12C(=O)Nc1ccccc12 (configuration not stated)
IC50: 13.1 µM
IC90: 30.9 µM

Cc1ccc(-c2nc3c(c(=O)c4ccccc4n3C)c(=O)n2Cc2ccco2)cc1
IC50: 11.4 µM
IC90: 36.3 µM

N#CC(C#N)=c1ccc2c(c1)N1C3=C(CCCC3)CC3CCCCC31N=2 (configuration not stated)
IC50: 11.5 µM
IC90: 13.1 µM

O=c1/c(=C\c2ccc(O)cc2)sc2n1C(c1ccccc1)C(c1ccccc1)=NN=2 (configuration not stated)
IC50: 55.7 µM
IC90: 87.2 µM

O=C1c2ccccc2C(=O)N1Nc1ccccc1
IC90: > 100 µM

CCOP(=O)(OCC)/C(=C/N1CCCCC1)NC(=O)c1ccccc1
IC50: 81.4 µM
IC90: > 100 µM

O=c1cc(/C=C/c2ccccc2)oc2ccccc12
IC50: 36.4 µM
IC90: > 100 µM

Cc1nc2scc(-c3cccs3)c2c(=O)n1-n1cccc1
IC50: 56.1 µM
IC90: > 100 µM

COc1ccc(N=c2ssnc2Cl)cc1
IC50: 38.9 µM
IC90: > 100 µM

COC(=O)c1c(NC(=O)CC2SC(N)=NC2=O)sc2c1CCC(C(C)(C)C)C2 (configuration not stated)
IC50: 34.4 µM
IC90: 51.3 µM

Cc1ccc(-c2noc(=O)n2CC(=O)c2ccc(Cl)cc2)cc1
IC50: 44.3 µM
IC90: > 100 µM

CCc1ccc(CCOc2ccc(CC3SC(=O)NC3=O)cc2)nc1 (configuration not stated)
IC50: 23.3 µM
IC90: > 25 µM

COc1cc(OC)c(OC)cc1CCC(C)NCCC(c1ccccc1)c1ccccc1 (configuration not stated)
IC50: 22.3 µM
IC90: 25 µM

Cc1cc2cc(CNC(=O)NC3CCCCC3)ccc2[nH]1
IC50: 23.3 µM
IC90: 50.9 µM

COc1ccccc1N(C)S(=O)(=O)c1ccc(C(=O)Nc2ccc3nc(C)sc3c2)cc1
IC50: 58.2 µM
IC90: > 100 µM

CCOC(=O)Cc1csc(NC(=O)c2c(O)c3c(n(CC(C)C)c2=O)CCCC3)n1
IC50: 5.19 µM
IC90: 72 µM
